This is an account of results in ChEMBL document CHEMBL3616376, “Anti-proliferative activity of Monensin and its tertiary amide derivatives” (Bioorg Med Chem Lett, 2015).

The nature of test [1]: Selectivity index, ratio of IC50 for mouse BALB/3T3 cells to IC50 for human LoVo cells. The test is classed as functional.
The subject of another test is BALB/3T3. Put plainly: Cytotoxicity against mouse BALB/3T3 cells. The class given is cell-based.
In the next test the test system is MV4-11. Put plainly: Antiproliferative activity against human MV4-11 cells. The test is classed as functional, cell-based.
Test [2] is described as follows: Selectivity index, ratio of IC50 for mouse BALB/3T3 cells to IC50 for human LoVo/Dx cells. The test is classed as functional.
Test [3] is described as follows: Selectivity index, ratio of IC50 for mouse BALB/3T3 cells to IC50 for human MV4-11 cells. The class given is functional.
Test [4] can be described thus: Antiproliferative activity against human LoVo/DX cells. The test is classed as functional, cell-based.
Test [5] relates to LoVo. As to the kind of experiment: Resistance index, ratio of IC50 for human LoVo/DX cells to IC50 for human LoVo cells. The test is classed as functional.
Test [6] relates to LoVo. As to the kind of experiment: Antiproliferative activity against human LoVo cells. The test is classed as functional, cell-based.

Each structure is given as a SMILES string.

Take `CCN(CC)C(=O)[C@@H](C)[C@H](OC)[C@H](C)[C@H]1O[C@@]2(CC[C@@](C)([C@H]3CC[C@@](CC)([C@@H]4O[C@@H]([C@H]5O[C@@](O)(CO)[C@H](C)C[C@@H]5C)C[C@@H]4C)O3)O2)C[C@H](O)[C@H]1C`: the “Ratio IC50” value is 2.63 in test [1], 6.07 in test [2], 5.17 in test [3] and 0.43 with LoVo [5]. In addition, the IC50 worked out at 28.1 µM with BALB/3T3, 5.44 µM with MV4-11, 4.63 µM in test [4] and 10.7 µM with LoVo [6].

In the case of `CCCN(CCC)C(=O)[C@@H](C)[C@H](OC)[C@H](C)[C@H]1O[C@@]2(CC[C@@](C)([C@H]3CC[C@@](CC)([C@@H]4O[C@@H]([C@H]5O[C@@](O)(CO)[C@H](C)C[C@@H]5C)C[C@@H]4C)O3)O2)C[C@H](O)[C@H]1C`, the “Ratio IC50” value in test [1] came out at 1.78; in test [2], 1.27; in test [3] it was 1.3; in the test on LoVo [5], 1.4. For the same compound, the 50% inhibitory concentration (IC50) with BALB/3T3 came out at 7.73 µM; with MV4-11 it was 5.96 µM; in test [4], 6.09 µM; in the test on LoVo [6] it was 4.35 µM.

With `CC[C@@]1([C@@H]2O[C@@H]([C@H]3O[C@@](O)(CO)[C@H](C)C[C@@H]3C)C[C@@H]2C)CC[C@H]([C@]2(C)CC[C@]3(C[C@H](O)[C@@H](C)[C@@H]([C@@H](C)[C@@H](OC)[C@H](C)C(=O)N(CCOC)CCOC)O3)O2)O1`, the “Ratio IC50” value in test [1] is listed as 1.15; in test [2], 4.16; in test [3], 1.53; with LoVo [5], 0.28. Moreover, the IC50 in the test on BALB/3T3 was 42 µM; in the test on MV4-11, 27.5 µM; in test [4] it was 10.1 µM; in the test with LoVo [6], 36.6 µM.

Take `CC[C@@]1([C@@H]2O[C@@H]([C@H]3O[C@@](O)(CO)[C@H](C)C[C@@H]3C)C[C@@H]2C)CC[C@H]([C@]2(C)CC[C@]3(C[C@H](O)[C@@H](C)[C@@H]([C@@H](C)[C@@H](OC)[C@H](C)C(=O)N4CCNCC4)O3)O2)O1`: the “Ratio IC50” value in test [1] worked out at 3.82; in test [2], 1.6; in test [3] it was 10.19; in the test with LoVo [5] it was 2.39. The concentration for half-maximal inhibition (IC50) amounted to 33 µM with BALB/3T3, 3.24 µM in the test on MV4-11, 20.7 µM in test [4] and 8.65 µM with LoVo [6].

With `CC[C@@]1([C@@H]2O[C@@H]([C@H]3O[C@@](O)(CO)[C@H](C)C[C@@H]3C)C[C@@H]2C)CC[C@H]([C@]2(C)CC[C@]3(C[C@H](O)[C@@H](C)[C@@H]([C@@H](C)[C@@H](OC)[C@H](C)C(=O)N4CCOCC4)O3)O2)O1`, the “Ratio IC50” value in test [1] stood at 2.5; in test [2], 10.21; in test [3], 19.78; with LoVo [5], 0.25. The half-inhibitory concentration (IC50) was determined as 49.6 µM in the test on BALB/3T3, 2.51 µM in the test with MV4-11, 4.86 µM in test [4] and 19.8 µM in the test on LoVo [6].

With `CC[C@@]1([C@@H]2O[C@@H]([C@H]3O[C@@](O)(CO)[C@H](C)C[C@@H]3C)C[C@@H]2C)CC[C@H]([C@]2(C)CC[C@]3(C[C@H](O)[C@@H](C)[C@@H]([C@@H](C)[C@@H](OC)[C@H](C)C(=O)N(Cc4ccccc4)Cc4ccccc4)O3)O2)O1`, the “Ratio IC50” value stood at 3.53 in test [1], 3.46 in test [2], 3.99 in test [3] and 1.02 in the test on LoVo [5]. For the same compound, the IC50 with BALB/3T3 amounted to 13.1 µM; in the test with MV4-11, 3.28 µM; in test [4], 3.78 µM; in the test on LoVo [6], 3.71 µM.

On to `COc1cccc2c1C(=O)c1c(O)c3c(c(O)c1C2=O)C[C@@](O)(C(=O)CO)C[C@@H]3O[C@H]1C[C@H](N)[C@H](O)[C@H](C)O1` [DOXORUBICIN], for which the entries for the “Ratio IC50” value (in test [1]; in test [2]; in the test on LoVo [5]) were 1.89, 0.08 and 23.62, respectively. For the same compound, the concentration for half-maximal inhibition (IC50) in the test with BALB/3T3 is 0.53 µM; in test [4], 6.73 µM; in the test on LoVo [6], 0.28 µM.

For the compound `CC[C@@]1([C@@H]2O[C@@H]([C@H]3O[C@@](O)(CO)[C@H](C)C[C@@H]3C)C[C@@H]2C)CC[C@H]([C@]2(C)CC[C@]3(C[C@H](O)[C@@H](C)[C@@H]([C@@H](C)[C@@H](OC)[C@H](C)C(=O)O)O3)O2)O1` [MONENSIN], the “Ratio IC50” value in test [1] came to 19.17; in test [2], 34.25; in test [3], 232.11; in the test with LoVo [5], 0.56. For the same compound, the IC50 in the test with BALB/3T3 was determined as 20.9 µM; in the test with MV4-11 it was 0.09 µM; in test [4], 0.61 µM; in the test with LoVo [6] it was 1.09 µM.
